Measured values as given in US4407806A, “Fungicidal, herbicidal and plant growth regulating pyridyl-containing ethers” (Chevron Research Company, priority 1981, dated 1983).

What was measured:
Assay type in all cases: in vivo
[1] = test system: Tomato Late Blight organism Phytophthora infestans; experiment: whole plant or invertebrate; settings: 168 h, read-out: Fungicidal Activity Control %, Tomato L.B.
[2] = test system: Cotton plants; experiment: Cotton Regrowth; settings: Gossypium hirsutum, 13 to 18 days, 100% is total inhibition, read-out: Regrowth (percent inhibition of cotton regrowth)
Method: Compounds of this invention were tested to determine their plant-growth regulating effects on cotton leaf regrowth.
Cotton plants, 4 to 5 weeks old, containing 4 true leaves above the cotyledonary leaves are employed. Growth beyond the second true leaf was removed. Within 24 hours the plants are sprayed with a 2000 ppm solution of the test compound. After spraying, the plants are transferred to a greenhouse maintained at 85° F. (±5° F.) and incubated there for from 13 to 18 days. The plants during this period are sub-irrigated in 1/4" of water.
After this period, regrowth is determined as a percent inhibition of auxiliary bud regrowth--100% is total inhibition while 0% is no inhibition.

[3] = test system: Wild Oats (Avena fatura); experiment: Pre-emergent herbicidal test; settings: 504 h, pre-emergence, 33 micrograms/cm^2, 3 weeks, 0-to-100 scale
Method: (§1) An acetone solution of the test compound was prepared by mixing 750 mg of the compound, 220 mg of a nonionic surfactant and 25 ml of acetone. This solution was added to approximately 125 ml of water containing 156 mg of surfactant.
(§2) Seeds of the test vegetation were planted in a pot of […] and the test solution was sprayed uniformly onto the soil surface at a dose of 33 micrograms/cm^2. The pot was watered and placed in a greenhouse. […] At the end of this period, the herbicidal effectiveness of the compound was rated based on the physiological observations. A 0-to-100 scale was used, 0 representing no phytotoxicity, 100 representing complete kill.

[4] = test system: Soybean; experiment: Pre-emergent herbicidal test; settings: Glycine max, 504 h; pre-emergence; 33 micrograms/cm^2; 3 weeks; 0-to-100 scale; read-out: Herbicidal Activity Pre-Emergence % Control, Soybean
Method: as §1, §2

[5] = test system: Lambsquarter (Chenopodium album); experiment: Pre-emergent herbicidal test; settings: 504 h, pre-emergence, 33 micrograms/cm^2, 3 weeks, 0-to-100 scale, read-out: Herbicidal Activity Pre-Emergence % Control, L'Qtr.
Method: as §1, §2

[6] = test system: Mustard (Brassica arvensis); experiment: Pre-emergent herbicidal test; settings: 504 h, pre-emergence, 33 micrograms/cm^2, 3 weeks, 0-to-100 scale
Method: as §1, §2

[7] = test system: Crabgrass (Digitaria sanguinalis); experiment: Pre-emergent herbicidal test; settings: 504 h, pre-emergence, 33 micrograms/cm^2, 3 weeks, 0-to-100 scale, read-out: Herbicidal Activity Pre-Emergence % Control, Crab Grass
Method: as §1, §2

[8] = test system: Watergrass (Echinochloa crusgalli); experiment: Pre-emergent herbicidal test; settings: Echinochloa crus-galli, 504 h; pre-emergence; 33 micrograms/cm^2; 3 weeks; 0-to-100 scale; read-out: Herbicidal Activity Pre-Emergence % Control, Water Grass
Method: as §1, §2

[9] = test system: Pigweed (Amaranthus retraflexus); experiment: Pre-emergent herbicidal test; settings: 504 h, pre-emergence, 33 micrograms/cm^2, 3 weeks, 0-to-100 scale
Method: as §1, §2

[10] = test system: Bean Powdery Mildew organism Erisiphe polygoni; experiment: Bean Powdery Mildew control; settings: 240 h, 10 days, vs untreated check, read-out: Fungicidal Activity Control %, Bean P.M.
Method: The compounds of the invention were tested for the control of the Bean Powdery Mildew organism […] polygoni. Seedling bean plants were sprayed with a 250 ppm solution of the test compound in acetone, water and a nonionic emulsifier. The sprayed plants were then inoculated 1 day later with organism. […] The percent disease control provided by a given test compound was based on the percent disease reduction relative to the untreated check plants.

[11] = test system: tomato Early Blight organism, Alternaria solani conidia; experiment: Tomato Early Blight control; settings: 288 h, about 12 days in greenhouse, vs untreated check, read-out: Fungicidal Activity Control %, Tomato E.B.
Method: Compounds of the invention were tested for the control of the tomato Early Blight organism, Alternaria solani conidia. Tomato (variety Bonny Best) seedlings of 6 to 7 weeks old were used. The tomato plants were sprayed with a 250 ppm solution of the test compound in an acetone-and-water solution containing a small amount of a nonionic emulsifier. The sprayed plants were inoculated one day later with the organism, placed in the environmental chamber and incubated at […] and 100% relative humidity for 24 hours. Following the incubation, the plants were maintained in a greenhouse for about 12 days. Percent diseases control was based on the percent disease development on untreated check plants.

[12] = test system: grape downy mildew organism Plasmopara viticola; experiment: Grape Downy Mildew control (detached grape leaves); settings: vs untreated check, read-out: Fungicidal Activity Control %, Grape D.M.
[13] = test system: Idaho pinto bean plants; experiment: Axillary Bud Growth Inhibition Of Pinto Bean Plants; settings: 288 h; 625-ppm; twelve days after treatment; vs untreated check; read-out: Bud Inhib (percent inhibition of axillary bud growth)
Method: Compounds of this invention were tested to determine their plant-growth-retarding effects on axillary bud growth of pinto beans.
Idaho pinto bean plants (13-16 days old) having monofoliate leaves fully developed and first trifoliates beginning to unfold were used. All growth 5 mm above the monofoliate leaf node was removed with forceps 1 to 4 hours prior to treatment with the test compounds. Four plants were used for each test compound.
A 625-ppm solution of the test compound in a 2% aqueous acetone solution containing a small amount of a nonionic surfactant was sprayed onto the pinto bean plants until runoff. After drying, the treated plants were transferred to a greenhouse maintained at 20°-23° C. and watered at regular intervals. Twelve days after treatment, the bud growth at the axil of the monofoliate leaf was determined and expressed as percent inhibition of axillary bud growth as compared to untreated check plants.

[14] = test system: Wild Oats (Avena fatura); experiment: Post-emergent herbicidal test; settings: 504 h, post-emergence, 33 micrograms/cm^2, 3 weeks, 0-to-100 scale
[15] = test system: Soybean; experiment: Post-emergent herbicidal test; settings: Glycine max, 504 h, post-emergence, 33 micrograms/cm^2, 3 weeks, 0-to-100 scale, read-out: Herbicidal Activity Post-Emergence % Control, Soybean
[16] = test system: Lambsquarter (Chenopodium album); experiment: Post-emergent herbicidal test; settings: 504 h, post-emergence, 33 micrograms/cm^2, 3 weeks, 0-to-100 scale, read-out: Herbicidal Activity Post-Emergence % Control, L'Qtr.
[17] = test system: Mustard (Brassica arvensis); experiment: Post-emergent herbicidal test; settings: 504 h, post-emergence, 33 micrograms/cm^2, 3 weeks, 0-to-100 scale
[18] = test system: Crabgrass (Digitaria sanguinalis); experiment: Post-emergent herbicidal test; settings: 504 h, post-emergence, 33 micrograms/cm^2, 3 weeks, 0-to-100 scale, read-out: Herbicidal Activity Post-Emergence % Control, Crab Grass
[19] = test system: Watergrass (Echinochloa crusgalli); experiment: Post-emergent herbicidal test; settings: Echinochloa crus-galli, 504 h, post-emergence, 33 micrograms/cm^2, 3 weeks, 0-to-100 scale, read-out: Herbicidal Activity Post-Emergence % Control, Water Grass
[20] = test system: Pigweed (Amaranthus retraflexus); experiment: Post-emergent herbicidal test; settings: 504 h, post-emergence, 33 micrograms/cm^2, 3 weeks, 0-to-100 scale
[21] = test system: celery late blight organism Septoria apii; experiment: whole plant or invertebrate; settings: 336 h, read-out: Fungicidal Activity Control %, Celery L.B.

Structure (SMILES) | pest or weed control at 250 ppm [1] [%] | inhibition at 2000 ppm [2] [%] | pest or weed control at 33 µg/cm2 [3] [%] | plant injury at 33 µg/cm2 [4] [%] | pest or weed control at 33 µg/cm2 [5] [%] | pest or weed control at 33 µg/cm2 [6] [%] | pest or weed control at 33 µg/cm2 [7] [%] | pest or weed control at 33 µg/cm2 [8] [%] | pest or weed control at 33 µg/cm2 [9] [%] | pest or weed control at 250 ppm [10] [%] | pest or weed control at 250 ppm [12] [%] | pest or weed control at 625 µg/mL [13] [%] | pest or weed control at 5000 ppm, 33 µg/cm2 [14] [%] | plant injury at 5000 ppm, 33 µg/cm2 [15] [%] | pest or weed control at 5000 ppm, 33 µg/cm2 [16] [%] | pest or weed control at 5000 ppm, 33 µg/cm2 [17] [%] | pest or weed control at 5000 ppm, 33 µg/cm2 [18] [%] | pest or weed control at 5000 ppm, 33 µg/cm2 [19] [%] | pest or weed control at 5000 ppm, 33 µg/cm2 [20] [%] | pest or weed control at 250 ppm [21] [%] | also measured
CC(C)(C)c1ccc(COC(c2cccnc2)c2ccc(Cl)cc2Cl)cc1 (stereo not shown) [Compound 6, 3-pyridyl-2,4-dichlorophenylcarbinol 4-t-butylbenzylether] | 0 | 90 | 25 | 0 | 15 | 20 | 68 | 65 | 35 | 100 | 50 | 60 | 0 | 35 | 60 | 25 | 0 | 0 | 55 | 78 | pest or weed control at 250 ppm [11]: 40%
FC(F)(F)c1cccc(COC(c2ccccc2)c2cccnc2)c1 (stereo not shown) [Compound 8] | 0 | 65 | 0 | 0 | 0 | 0 | 0 | 0 | 0 | 100 | 0 | 60 | 0 | 25 | 40 | 50 | 0 | 0 | 50 | 38 | pest or weed control at 250 ppm [11]: 25%
OC(c1cccnc1)c1ccc(Cl)cc1Cl (stereo not shown) [Compound 2, 3-pyridyl-2,4-dichlorophenylcarbinol] | 0 | 0 | 0 | 0 | 0 | 0 | 0 | 0 | 0 | 100 | 25 | 0 | 0 | 0 | 0 | 0 | 0 | 0 | 0 | 31 | 
C=C(Cl)COC(c1cccnc1)c1ccc(Cl)cc1Cl (stereo not shown) [Compound 4, 3-pyridyl-2,4-dichlorophenylcarbinol 2-chloroallylether] | 0 | 0 | 33 | 0 | 73 | 30 | 70 | 83 | 35 | 100 | 27 | 30 | 0 | 28 | 55 | 58 | 0 | 0 | 45 | 83 | pest or weed control at 250 ppm [11]: 73%
c1ccc(-c2ccc(COC(c3ccccc3)c3cccnc3)cc2)cc1 (stereo not shown) [Compound 11, 3-pyridylphenylcarbinol 4-phenylbenzylether] | 0 |  |  |  |  |  |  |  |  | 100 | 13 | 0 |  |  |  |  |  |  |  | 47 | pest or weed control at 250 ppm [11]: 5%
Clc1ccc(COC(c2cccnc2)c2ccc(Cl)cc2Cl)c(Cl)c1 (stereo not shown) [Compound 1, 3-pyridyl-2,4-dichlorophenylcarbinol 2,4-dichlorobenzylether] | 4 | 55 | 0 | 0 | 0 | 0 | 0 | 0 | 0 | 100 | 0 | 85 | 0 | 20 | 20 | 30 | 0 | 0 | 30 | 88 | 
